Measured values as given in the supplement of paper PMC10307832.

What was measured:
Test in all cases: relative viability (nuclei count vs DMSO), 5 days (fraction); higher = more cells survive
[1] = compound: COc1cc2nccc(Oc3ccc(NC(=O)C4(C(=O)Nc5ccc(F)cc5)CC4)cc3)c2cc1OC [Cabozantinib] + CC1(C)CCC(c2ccc(Cl)cc2)=C(CN2CCN(c3ccc(C(=O)NS(=O)(=O)c4ccc(N[C@H](CCN5CCOCC5)CSc5ccccc5)c(S(=O)(=O)C(F)(F)F)c4)cc3)CC2)C1 [Navitoclax] (partner 0.5 µM)
In short: (§1)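 For relative viability, nuclei counts in treated wells were divided by those in vehicle wells. Lung cancer cell lines had been pin-tool dosed in 1536-well plates the day after seeding and cultured for 5 days, then fixed and stained in one step (final 0.05% Triton X-100, 1% formaldehyde, 1 ug/ml Hoechst) and imaged at 4×. Doses were one drug alone or a fixed anchor-drug dose plus five library-drug doses (not always all listed) in √10 steps, and values are duplicate-plate medians.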

[2] = compound: O[C@@H](COc1cccc2ncccc12)CN1CCN([C@@H]2c3ccccc3[C@@H]3[C@H](c4ccccc42)C3(F)F)CC1 [Zosuquidar] + Nc1ncn([C@H]2C[C@H](O)[C@@H](CO)O2)c(=O)n1 [Decitabine] (partner 2 µM)
In short: as §1

[3] = compound: O[C@@H](COc1cccc2ncccc12)CN1CCN([C@@H]2c3ccccc3[C@@H]3[C@H](c4ccccc42)C3(F)F)CC1 [Zosuquidar] + O=C(CCCCCCC(=O)Nc1ccccc1)NO [Vorinostat] (partner 1 µM)
In short: as §1

[4] = compound: O[C@@H](COc1cccc2ncccc12)CN1CCN([C@@H]2c3ccccc3[C@@H]3[C@H](c4ccccc42)C3(F)F)CC1 [Zosuquidar] + NC(=O)Nc1cc(-c2cccc(F)c2)sc1C(=O)N[C@H]1CCCNC1 [AZD7762] (partner 0.2 µM)
In short: as §1

| Cell Line | relative viability ([1]; first compound 0.02 µM) | relative viability ([1]; first compound 0.06325 µM) | relative viability ([1]; first compound 0.2 µM) | relative viability ([1]; first compound 0.6325 µM) | relative viability ([1]; first compound 2 µM) | relative viability ([2]; first compound 0.01 µM) | relative viability ([2]; first compound 0.03162 µM) | relative viability ([2]; first compound 0.1 µM) | relative viability ([2]; first compound 0.3162 µM) | relative viability ([2]; first compound 1 µM) | relative viability ([3]; first compound 0.01 µM) | relative viability ([3]; first compound 0.03162 µM) | relative viability ([3]; first compound 0.1 µM) | relative viability ([3]; first compound 0.3162 µM) | relative viability ([3]; first compound 1 µM) | relative viability ([4]; first compound 0.01 µM) | relative viability ([4]; first compound 0.03162 µM) | relative viability ([4]; first compound 0.1 µM) | relative viability ([4]; first compound 0.3162 µM) | relative viability ([4]; first compound 1 µM) |
| --- | --- | --- | --- | --- | --- | --- | --- | --- | --- | --- | --- | --- | --- | --- | --- | --- | --- | --- | --- | --- |
| NCI-H520 | 0.902 | 1.16 | 1.21 | 1.02 | 0.998 | 0.505 | 0.523 | 0.395 | 0.472 | 0.47 | 0.639 | 0.51 | 0.71 | 0.664 | 0.835 | – | – | – | – | – |
| NCI-H1915 | 0.778 | 0.823 | 0.801 | 0.732 | 0.769 | 0.278 | 0.252 | 0.279 | 0.288 | 0.269 | 0.536 | 0.512 | 0.457 | 0.57 | 0.549 | 0.714 | 0.699 | 0.613 | 0.816 | 0.756 |
| NCI-H1299 | 1.03 | 1.04 | 1.08 | 1.06 | 1.09 | – | – | – | – | – | – | – | – | – | – | – | – | – | – | – |
| HCC-827 | 1.05 | 1.07 | – | 1.05 | 0.981 | 0.302 | 0.367 | 0.266 | 0.307 | 0.295 | 0.761 | 0.786 | 0.714 | 0.849 | 0.999 | 0.171 | 0.212 | 0.148 | 0.216 | 0.192 |
| EMC-BAC-2 | 1.16 | 1.36 | 1.2 | 1.14 | 1.22 | 0.915 | 0.991 | 0.9 | 1.14 | 0.964 | 0.457 | 0.438 | 0.489 | 0.528 | 0.258 | 1.1 | 1.15 | 1.11 | 1.26 | 0.979 |
| NCI-H650 | – | – | – | – | – | 0.292 | 0.369 | 0.387 | 0.398 | 0.376 | 0.452 | 0.414 | 0.397 | 0.577 | 0.435 | 0.944 | 0.801 | 0.897 | 1.31 | 0.898 |
| NCI-H1792 | 0.59 | 0.967 | 0.555 | 0.637 | 0.589 | 0.545 | 0.532 | 0.603 | 0.584 | 0.556 | – | – | – | – | – | 0.539 | 0.623 | 0.5 | 0.817 | 1.19 |
| NCI-H2009 | 1.25 | 1.19 | 1.21 | 1.18 | 1.2 | 0.348 | 0.338 | 0.376 | 0.327 | 0.344 | 0.688 | 0.658 | 0.654 | 0.773 | 0.664 | – | – | – | – | – |
| SW 900 | – | – | – | – | – | 0.478 | 0.466 | – | 0.394 | 0.421 | 0.431 | 0.464 | – | 0.567 | 0.527 | 0.597 | 0.782 | – | 0.668 | 0.636 |
| NCI-H1650 | 1.19 | 1.5 | 1.07 | 1.23 | 1.06 | 0.451 | 0.439 | 0.553 | 0.398 | 0.378 | 0.584 | 0.587 | 0.532 | 0.665 | 0.546 | – | – | – | – | – |
| NCI-H661 | – | – | – | – | – | 0.557 | 0.54 | 0.595 | 0.516 | 0.523 | 0.802 | 0.834 | 0.763 | 0.828 | 0.778 | – | – | – | – | – |
| NCI-H358 | – | – | – | – | – | 0.23 | 0.194 | 0.214 | 0.255 | 0.19 | 0.662 | 0.8 | 0.634 | 0.646 | 0.639 | 0.55 | 0.541 | 0.492 | 0.503 | 0.43 |
| Calu-6 | 0.76 | 0.912 | 0.801 | 0.739 | 0.773 | – | – | – | – | – | – | – | – | – | – | – | – | – | – | – |
| EBC-1 | 0.444 | 0.302 | 0.152 | 0.125 | 0.0913 | – | – | – | – | – | – | – | – | – | – | – | – | – | – | – |
| NCI-H2342 | – | – | – | – | – | 0.703 | 0.801 | 0.721 | 0.738 | 0.717 | 0.753 | 0.807 | 0.686 | 0.813 | 0.81 | 0.63 | 0.527 | 0.44 | 0.552 | 0.47 |
| COR-L23 | 1.07 | 1.16 | 1.03 | 0.973 | 0.931 | 0.501 | 0.421 | 0.511 | 0.469 | 0.468 | 0.493 | 0.515 | 0.472 | 0.517 | 0.509 | – | – | – | – | – |
| NCI-H1703 | 0.618 | 0.48 | 0.265 | 0.258 | 0.206 | – | – | – | – | – | – | – | – | – | – | 0.0988 | 0.125 | – | 0.136 | 0.125 |
| SW 1573 | 1.04 | 1.17 | 0.887 | 1 | 0.81 | 0.372 | 0.508 | 0.568 | 0.598 | 0.591 | 0.584 | 0.831 | 1.23 | 0.851 | 0.928 | – | – | – | – | – |
| SK-LU-1 | – | 1.09 | 0.967 | 0.852 | 0.988 | 0.652 | 0.66 | 0.684 | 0.679 | 0.638 | 0.828 | 0.829 | 0.839 | 0.926 | 0.761 | – | – | – | – | – |
| NCI-H1648 | – | – | – | – | – | 0.427 | 0.612 | 0.434 | 0.455 | 0.489 | 0.423 | 0.422 | 0.242 | 0.387 | 0.434 | 0.633 | 1.13 | 0.671 | 0.538 | 0.594 |
| NCI-H522 | – | – | – | – | – | 0.681 | 0.624 | 0.643 | 0.618 | 0.657 | 0.909 | 0.796 | 0.927 | 0.887 | 0.871 | 0.993 | 0.928 | 1.05 | 0.807 | 0.984 |
| A549 | 1.26 | 1.24 | 1.21 | 1.27 | 1.08 | 0.264 | 0.116 | – | 0.318 | 0.301 | – | – | – | – | – | – | – | – | – | – |
| LCLC-103H | – | – | – | – | – | 0.803 | 0.724 | 0.787 | 0.739 | 0.772 | 0.754 | 0.771 | 0.598 | 0.848 | 0.803 | 0.793 | 0.76 | 0.672 | 0.755 | 0.809 |
